Key:
Test in all cases: relative viability (cell count relative to DMSO-treated control) (fraction of DMSO control); higher = more viable cells / less drug effect
WM1552C = system: WM1552C
Procedure: (§1)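 BRAF V600E/D melanoma cell lines were seeded in 96-well plates, treated in 4 replicates with seven doses (3.16 nM to 3.16 uM) of RAF/MEK inhibitors for 24, 48 or 72 h, and stained with Hoechst 33342 (nuclei) and DEVD-NucView488 caspase-3 substrate. Plates were imaged on an Operetta. Relative viability is the cell count normalised to a DMSO-treated control; apoptosis fraction is the fraction of NucView488-positive nuclei.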

LOXIMVI = settings: 24 h
Procedure: as §1

MZ7MEL = system: MZ7MEL
Procedure: as §1

RVH421 = system: RVH421
Procedure: as §1

MMACSF = system: MMACSF
Procedure: as §1

Cc1ccc(NC(=O)c2cccc(C(C)(C)C#N)c2)cc1Nc1ccc2ncn(C)c(=O)c2c1 [AZ628]
relative viability
Settings | 0.00316 µM | 0.01 µM | 0.0316 µM | 0.1 µM | 0.316 µM | 1 µM | 3.16 µM
MMACSF, 24 h | 1.059 | 0.978 | 1 | 0.982 | 0.988 | 1 | 1.034
MMACSF, 48 h | 0.938 | 1.02 | 0.913 | 0.771 | 0.737 | 0.56 | 0.517
MMACSF, 72 h | 0.917 | 0.833 | 0.641 | 0.519 | 0.367 | 0.223 | 0.141
MZ7MEL, 24 h | 1.02 | 1.02 | 1.05 | 1.19 | 1.12 | 0.945 | 0.878
MZ7MEL, 48 h | 1.03 | 1.04 | 1 | 0.726 | 0.549 | 0.435 | 0.465
MZ7MEL, 72 h | 1.2 | 1.11 | 0.586 | 0.336 | 0.33 | 0.356 | 0.327
RVH421, 24 h | 0.929 | 0.9636 | 1.05 | 1.06 | 1.02 | 0.993 | 0.908
RVH421, 48 h | 1.06 | 0.944 | 0.81 | 0.666 | 0.696 | 0.65 | 0.544
RVH421, 72 h | 0.956 | 0.915 | 0.741 | 0.58 | 0.537 | 0.47 | 0.412
WM1552C, 24 h | 0.959 | 0.982 | 0.99 | 1.01 | 0.974 | 0.996 | 0.928
WM1552C, 48 h | 1.01 | 1 | 0.964 | 0.772 | 0.665 | 0.647 | 0.644
WM1552C, 72 h | 1.03 | 1.11 | 0.948 | 0.736 | 0.555 | 0.484 | 0.442

LOXIMVI
Settings | relative viability
0.00316 µM | 0.963
0.01 µM | 0.949
0.0316 µM | 0.956
0.1 µM | 0.942
0.316 µM | 0.86
1 µM | 0.862
3.16 µM | 0.822

From the supplement of paper PMC4380931
